Among the data in patent US7473790B2 (Pfizer Inc., priority 2003, dated 2009) are IC50 values, retold here.

What is called IC50 is the concentration at which inhibition is half-maximal.

T1 sequence (P26663 2420-3010): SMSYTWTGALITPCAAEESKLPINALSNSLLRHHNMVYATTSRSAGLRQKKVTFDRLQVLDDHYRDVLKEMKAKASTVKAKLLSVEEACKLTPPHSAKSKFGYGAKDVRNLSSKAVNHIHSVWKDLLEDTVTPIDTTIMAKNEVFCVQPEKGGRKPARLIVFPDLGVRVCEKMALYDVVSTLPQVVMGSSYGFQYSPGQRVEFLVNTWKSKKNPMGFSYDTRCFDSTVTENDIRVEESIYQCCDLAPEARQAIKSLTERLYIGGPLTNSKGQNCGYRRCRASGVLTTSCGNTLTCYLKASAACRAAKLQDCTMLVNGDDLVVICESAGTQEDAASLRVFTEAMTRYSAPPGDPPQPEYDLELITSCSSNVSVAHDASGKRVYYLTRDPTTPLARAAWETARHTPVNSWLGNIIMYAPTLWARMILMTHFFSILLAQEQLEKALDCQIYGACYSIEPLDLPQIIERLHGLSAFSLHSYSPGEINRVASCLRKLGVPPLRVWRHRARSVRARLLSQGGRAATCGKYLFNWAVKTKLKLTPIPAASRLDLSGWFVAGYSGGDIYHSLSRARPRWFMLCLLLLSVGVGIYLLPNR

This experiment has as its target T1, HCV polymerase (Hepatitis C virus genotype 1b, UniProt P26663).
T1 construct: 2.5 pmoles (0.15 μg) HCV polymerase protein in a final volume of 75 μL
The experiment is described as follows: HCV polymerase primer/template-directed transcription assay (32P-GTP incorporation, filter binding). The experiment is classed as biochemical. Particulars: recombinant HCV polymerase; 30 minutes at 30° C.; concentration giving 50% inhibition of polymerase-directed transcription; read-out: IC50. In short, it runs like this:
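IC50s come from triplicate cpm, refit with an enzyme-concentration (30 nM) correction when under 200 nM. Reactions ran 30 min at 30° C in Tris pH 7.2 with MgCl2, 1 μM GTP spiked with α-32P-GTP, biotin-dG12 primer and poly(rC)300 template, with 1% DMSO. Incorporated label was collected on DE filtermats and counted.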
`Cc1cc(C)n2nc(CC3=C(O)CC(CCc4ccc(N(C)S(C)(=O)=O)cc4)(C4CCCC4)OC3=O)nc2n1` (stereo not shown) [A(133), 6-cyclopentyl-3-[(5,7-dimethyl[1,2,4]triazolo[1,5-a]pyrimidin-2-yl)methyl]-4-hydroxy-6-[2-(4-{methyl[methyl(dimethylene)-I^6-sulfanyl]amino}phenyl)ethyl]-5,6-dihydro-2H-pyran-2-one]: the IC50 is 72 nM.
Consider `O=C1CC(=O)OC(CCc2ccc(N3CCCS3(=O)=O)c(F)c2)(C2CCCC2)C1` (stereo not shown) [A(134), 6-cyclopentyl-6-{2-[4-(1,1-dioxidoisothiazolidin-2-yl)-3-fluorophenyl]ethyl}dihydro-2H-pyran-2,4(3H)-dione], for which the IC50 worked out at 38000 nM.
In the case of `Cc1cc(C)n2nc(CC3=C(O)CC(CCc4ccc(O)c(C5CCCC5)c4)(C4CCCC4)OC3=O)nc2n1` (stereo not shown) [A(135), 6-cyclopentyl-6-[2-(3-cyclopentyl-4-hydroxyphenyl)ethyl]-3-[(5,7-dimethyl[1,2,4]triazolo[1,5-a]pyrimidin-2-yl)methyl]-4-hydroxy-5,6-dihydro-2H-pyran-2-one] it was 15 nM.
With `CCCc1cc(CCC2(C3CCCC3)CC(O)=C(Cc3nc4nc(C)cc(C)n4n3)C(=O)O2)ccc1O` (stereo not shown) [A(136), 6-cyclopentyl-3-[(5,7-dimethyl[1,2,4]triazolo[1,5-a]pyrimidin-2-yl)methyl]-4-hydroxy-6-[2-(4-hydroxy-3-propylphenyl)ethyl]-5,6-dihydro-2H-pyran-2-one] the figure was 2 nM; with `CCCc1cc(CCC2(C3CCCC3)CC(O)=C(Cc3nc4nc(CC)cc(CC)n4n3)C(=O)O2)ccc1O` (stereo not shown) [A(137), 6-cyclopentyl-3-[(5,7-dietylphenyl)ethyl]-5,6-hyl[1,2,4]triazolo[1,5-a]pyrimidin-2-yl)methyl]-4-hydroxy-6-[2-(4-hydroxy-3-propdihydro-2H-pyran-2-one], 7 nM; with `CCc1cc(CC)n2nc(CC3C(=O)CC(CCc4ccc(O)c(CC)c4)(C4CCCC4)OC3=O)nc2n1` (stereo not shown) [A(138), 6-cyclopentyl-3-[(5,7-diethyl[1,2,4]triazolo[1,5-a]pyrimidin-2-yl)methyl]-6-[2-(3-ethyl-4-hydroxyphenyl)ethyl]-4-hydroxy-5,6-dihydro-2H-pyran-2-one], 8 nM.
With `CCc1cc(CCC2(C3CCCC3)CC(O)=C(Cc3nc4nc(C)cc(C)n4n3)C(=O)O2)ccc1OCCNC(C)=O` (stereo not shown) [A(139), N-{2-[4-(2-{2-cyclopentyl-5-[(5,7-dimethyl[1,2,4]triazolo[1,5-a]pyrimidin-2-yl)methyl]-4-hydroxy-6-oxo-3,6-dihydro-2H-pyran-2-yl}ethyl)-2-ethylphenoxy]ethyl}acetamide] the figure was 2 nM.
Regarding `CC(C)(C#N)c1c(F)cc(CCC2(C3CCCC3)CC(O)=C(Cc3nc4ncc(Cl)cn4n3)C(=O)O2)cc1F` (stereo not shown) [A(142)], the IC50 was determined as 4 nM.
In the case of `Cc1cnc2nc(CC3=C(O)CC(CCc4cc(F)c(C(C)(C)C#N)c(F)c4)(C4CCCC4)OC3=O)nn2c1` (stereo not shown) [A(143), 2-(4-{2-[2-Cyclopentyl-4-hydroxy-5-(6-methyl-[1,2,4]triazolo[1,5-a]pyrimidin-2-ylmethyl)-6-oxo-3,6-dihydro-2H-pyran-2-yl]-ethyl}-2,6-difluoro-phenyl)-2-methyl-propionitrile] it was 9 nM; in that of `CC(C)(C#N)c1c(F)cc(CCC2(C3CCCC3)CC(O)=C(Cc3nc4ncccn4n3)C(=O)O2)cc1F` (stereo not shown) [A(144), 2-{4-[2-(2-Cyclopentyl-4-hydroxy-6-oxo-5-[1,2,4]triazolo[1,5-a]pyrimidin-2-ylmethyl-3,6-dihydro-2H-pyran-2-yl)-ethyl]-2,6-difluoro-phenyl}-2-methyl-propionitrile], 11 nM.
With `COC1=CC(=O)OC(CCc2ccc(C(C)(C)C#N)c(F)c2)(C2CCCC2)C1` (stereo not shown) [A(145), 2-{4-[2-(2-Cyclopentyl-4-methoxy-6-oxo-3,6-dihydro-2H-pyran-2-yl)-ethyl]-2-fluoro-phenyl}-2-methyl-propionitrile] the figure was 3900 nM; with `Cc1cc(C)n2nc(CC3=C(O)CC(CCc4ccc(C(C)(C)C#N)c(Cl)c4)(C4CCCC4)OC3=O)nc2n1` (stereo not shown) [A(146), 2-(2-Chloro-4-{2-[2-cyclopentyl-5-(5,7-dimethyl-[1,2,4]triazolo[1,5-a]pyrimidin-2-ylmethyl)-4-hydroxy-6-oxo-3,6-dihydro-2H-pyran-2-yl]-ethyl}-phenyl)-2-methyl-propionitrile], 2 nM.
With `CC(C)(C#N)c1ccc(CCC2(C3CCCC3)CC(=O)CC(=O)O2)cc1Cl` (stereo not shown) [A(147), 2-{2-Chloro-4-[2-(2-cyclopentyl-4,6-dioxo-tetrahydro-pyran-2-yl)-ethyl]-phenyl}-2-methyl-propionitrile] the figure was 1400 nM; with `Cc1cc(C)n2nc(CC3=C(O)CC(CCc4ccc(C5(C#N)CC5)c(Cl)c4)(C4CCCC4)OC3=O)nc2n1` (stereo not shown) [A(148), 1-(2-Chloro-4-{2-[2-cyclopentyl-5-(5,7-dimethyl-[1,2,4]triazolo[1,5-a]pyrimidin-2-ylmethyl)-4-hydroxy-6-oxo-3,6-dihydro-2H-pyran-2-yl]-ethyl}-phenyl)-cyclopropanecarbonitrile], 5 nM; with `N#CC1(c2ccc(CCC3(C4CCCC4)CC(=O)CC(=O)O3)cc2Cl)CC1` (stereo not shown) [A(149), 1-{2-Chloro-4-[2-(2-cyclopentyl-4,6-dioxo-tetrahydro-pyran-2-yl)-ethyl]-phenyl}-cyclopropanecarbonitrile], 3900 nM.
For `CCc1cc(CCC2(C3CCCC3)CC(O)=C(Cc3nc4nc(C)cc(C)n4n3)C(=O)O2)c(OC)cc1O` (stereo not shown) [A(150), 6-Cyclopentyl-3-(5,7-dimethyl-[1,2,4]triazolo[1,5-a]pyrimidin-2-ylmethyl)-6-[2-(5-ethyl-4-hydroxy-2-methoxy-phenyl)-ethyl]-4-hydroxy-5,6-dihydro-pyran-2-one], the IC50 worked out at 7 nM.
In the case of `CCc1cc(CCC2(C3CCCC3)CC(=O)CC(=O)O2)c(OC)cc1O` (stereo not shown) [A(151), 6-Cyclopentyl-6-[2-(5-ethyl-4-hydroxy-2-methoxy-phenyl)-ethyl]-dihydro-pyran-2,4-dione] it was 300 nM; in that of `CCc1cc(CCC2(C3CCCC3)CC(O)=C(Cc3nc[nH]c3C)C(=O)O2)c(OC)cc1O` (stereo not shown) [A(156), 6-Cyclopentyl-6-[2-(5-ethyl-4-hydroxy-2-methoxy-phenyl)-ethyl]-4-hydroxy-3-(5-methyl-1H-imidazol-4-ylmethyl)-5,6-dihydro-pyran-2-one], 21 nM; in that of `CCc1nc(CC2=C(O)CC(CCc3cc(CC)c(O)cc3OC)(C3CCCC3)OC2=O)c(C)[nH]1` (stereo not shown) [A(157), 6-Cyclopentyl-6-[2-(5-ethyl-4-hydroxy-2-methoxy-phenyl)-ethyl]-3-(2-ethyl-5-methyl-1H-imidazol-4-ylmethyl)-4-hydroxy-5,6-dihydro-pyran-2-one], 65 nM.
With `CCc1cc(CCC2(C3CCCC3)CC(O)=C(Cc3nc4ncc(Cl)cn4n3)C(=O)O2)c(C)cc1O` (stereo not shown) [A(160), 3-(6-Chloro-[1,2,4]triazolo[1,5-a]pyrimidin-2-ylmethyl)-6-cyclopentyl-6-[2-(5-ethyl-4-hydroxy-2-methyl-phenyl)-ethyl]-4-hydroxy-5,6-dihydro-pyran-2-one] the figure was 29 nM; with `CCc1cc(CCC2(C3CCCC3)CC(O)=C(Cc3nc4ncc(Cl)cn4n3)C(=O)O2)c(F)cc1O` (stereo not shown) [A(161), 3-(6-Chloro-[1,2,4]triazolo[1,5-a]pyrimidin-2-ylmethyl)-6-cyclopentyl-6-[2-(5-ethyl-2-fluoro-4-hydroxy-phenyl)-ethyl]-4-hydroxy-5,6-dihydro-pyran-2-one], 8 nM.
With `CCc1cc(CCC2(C3CCCC3)CC(O)=C(Cc3nc4nc(C)cc(C)n4n3)C(=O)O2)ccn1` (stereo not shown) [A(162), 6-Cyclopentyl-3-(5,7-dimethyl-[1,2,4]triazolo[1,5-a]pyrimidin-2-ylmethyl)-6-[2-(2-ethyl-pyridin-4-yl)-ethyl]-4-hydroxy-5,6-dihydro-pyran-2-one] the figure was 10 nM; with `CCc1cc(CCC2(C3CCCC3)CC(=O)CC(=O)O2)ccn1` (stereo not shown) [A(163), 6-Cyclopentyl-6-[2-(2-ethyl-pyridin-4-yl)-ethyl]-dihydro-pyran-2,4-dione], 1900 nM.
On to `CCc1cc(CCC2(C3CCCC3)CC(O)=C(Cc3nc4ncc(Cl)cn4n3)C(=O)O2)ccn1` (stereo not shown) [A(164), 3-(6-Chloro-[1,2,4]triazolo[1,5-a]pyrimidin-2-ylmethyl)-6-cyclopentyl-6-[2-(2-ethyl-pyridin-4-yl)-ethyl]-4-hydroxy-5,6-dihydro-pyran-2-one], for which the IC50 is 42 nM.
With `CCc1ccc(O)c(CCC2(C3CCCC3)CC(O)=C(Cc3nc4nc(C)cc(C)n4n3)C(=O)O2)c1` (stereo not shown) [A(166), 6-Cyclopentyl-3-(5,7-dimethyl-[1,2,4]triazolo[1,5-a]pyrimidin-2-ylmethyl)-6-[2-(5-ethyl-2-hydroxy-phenyl)-ethyl]-4-hydroxy-5,6-dihydro-pyran-2-one] the figure was 1 nM.
In the case of `CCc1ccc(O)c(CCC2(C3CCCC3)CC(=O)CC(=O)O2)c1` (stereo not shown) [A(169), 6-Cyclopentyl-6-[2-(5-ethyl-2-hydroxy-phenyl)-ethyl]-dihydro-pyran-2,4-dione] it was 400 nM; in that of `CCc1ccc(O)c(CCC2(C3CCCC3)CC(O)=C(Cc3nc4ncc(Cl)cn4n3)C(=O)O2)c1` (stereo not shown) [A(170), 3-(6-Chloro-[1,2,4]triazolo[1,5-a]pyrimidin-2-ylmethyl)-6-cyclopentyl-6-[2-(5-ethyl-2-hydroxy-phenyl)-ethyl]-4-hydroxy-5,6-dihydro-pyran-2-one], 10 nM; in that of `CCc1ccc(O)c(CCC2(C3CCCC3)CC(O)=C(Cc3nc4ncc(C)cn4n3)C(=O)O2)c1` (stereo not shown) [A(173), 6-Cyclopentyl-6-[2-(5-ethyl-2-hydroxy-phenyl)-ethyl]-4-hydroxy-3-(6-methyl-[1,2,4]triazolo[1,5-a]pyrimidin-2-ylmethyl)-5,6-dihydro-pyran-2-one], 4 nM.
